How the values were obtained:
Format in all cases: physicochemical
[1] = Dynamic vapor sorption (DVS) analysis, 5% RH to 95% RH and back to 5% RH at 10% RH increments
Protocol: Moisture sorption/desorption data were collected on a VTI SGA-100 Vapor Sorption Analyzer. NaCl and PVP were used as calibration standards. Samples were not dried prior to analysis. Sorption and desorption data were collected over a range from 5% to 95% RH at 10% RH increments under a nitrogen purge (RH=relative humidity). The equilibrium criterion used for analysis was less than 0.0100% weight change in 5 minutes with a maximum equilibration time of 3 hours. Data were not corrected for the initial moisture content of the samples.
DVS analysis of Compound 1-ethanolate Form A was conducted from 5% relative humidity (RH) to 95% RH and back to 5% RH at 10% RH increments (FIG. 7). […] A loss of 1.8 wt % was observed between 55% RH and 65% RH possibly due to water displacing ethanol. After 65% RH, the sample gained 3.8 wt % between 65% RH and 95% RH. […] Weight loss (˜7.6 wt %) was observed between 95% RH and 5% RH (i.e., desorption). After DVS analysis, it was noted that the sample had deliquesced.
DVS analysis of Compound 1-ethanolate Form B (with minor Form A) was conducted from 5% RH to 95% RH and back to 5% RH at 10% RH increments (FIG. 12). The DVS isotherm of Form B is qualitatively similar to that of Form A. Form B lost 0.2 wt % upon equilibration at ˜5% RH. […] A weight loss of 1.1% was observed between 45% RH and 55% RH, possibly due to the displacement of the ethanol with water. After 55% RH, the sample gained 3.3 wt % between 55% RH and 95% RH. […] Weight loss (˜5.8 w1%) was observed during desorption from 95% RH to 5% RH.

[2] = Separate DVS analysis with stepped increase in relative humidity, 0% RH to 60% RH, 4 h per step, then XRPD
Protocol: A second set of DVS experiments were conducted using a stepped method from 0% RH to 60% RH with steps of 10% RH and four hours of equilibration at each humidity value. […] The samples were placed on an aluminum holder and allowed to equilibrate at 0% RH before starting the following predefined humidity program; hold for 4 h at 0% RH, increase humidity by a step of 10% RH, hold for 4 h. repeat the above two steps five times until a value of 60% RH has been reached. The samples were then analyzed for crystallinity using the second set of XRPD conditions.

[3] = Mass spectrometric analysis of conversion of the ethanolate to Compound 1 in water; conditions: in the presence of water, high-resolution MS
Protocol: High resolution mass spectra from 50 to 3000 Da were collected with a Bruker Maxis —Plus QTOF mass spectrometer using an electrospray ionization source. The instrument was controlled and data analyzed using Bruker Compass v.4.4 software. The mass spectrometer was calibrated immediately prior to analyses and was operated in positive ionization mode using an Electrospray Ionization (ESI) source. Samples were prepared by dilution in absolute ethanol (without denaturants) or HPLC grade water prior to direct infusion into the ion source.
Mass spectrometric (MS) analyses were performed to confirm the structure of Compound 1-ethanolate Form A, and evaluate the ability of EtOH to dissociate from Compound 1-ethanolate in water. Compound 1-ethanolate Form A, and an amorphous preparation of ((2-ethylbutanoyl)oxy)methyl (R)-2-hydroxy-3-propionamido-3,4-dihydro-2H-benzo[e][1,2]oxaborinine-8-carboxylate were diluted in absolute EtOH or water and analyzed by high-resolution mass spectrometry. A sample of amorphous ((2-ethylbutanoyl)oxy)methyl (R)-2-hydroxy-3-propionamido-3.4-dihydro-2H-benzo[e]|1.2]oxaborinine-8-carboxylate, dissolved in absolute EtOH, was spiked with water prior to analysis. […] The exact mass observed for sodiated Compound 1-ethanolate was 442.2007 (difference=1.4 ppm vs. theoretical: C21H30BNO7Na: 442.2013 Da). […]

Row | SMILES | State of sample after DVS analysis ([1]; after 5-95-5% RH cycle) | Weight loss in DVS (desorption) ([1]; desorption from 95% RH to 5% RH) [w1%] | Weight loss upon equilibration ([1]; equilibration at ~5% RH) [wt %] | Weight gain in DVS ([1]; sorption, between 5% RH and 45% RH) [wt %] | Weight loss in DVS ([1]; sorption, between 45% RH and 55% RH, possibly displacement of ethanol with water) [%] | Weight gain in DVS ([1]; sorption, between 55% RH and 95% RH) [wt %] | Mass change in stepped DVS ([2]; at humidities higher than 40% RH, loss of ethanol from the boronate ester complex) | Mass increase in stepped DVS ([2]; from 0% RH to 40% RH) | Retention of crystal structure (XRPD after stepped DVS) ([2]; up to 60% r.h.) | Conversion to the free boronic acid (Compound 1) [3]
1 | CCOB1Oc2c(cccc2C(=O)OCOC(=O)C(CC)CC)C[C@@H]1NC(=O)CC [Compound 1-ethanolate Form B, ((2-ethylbutanoyl)oxy)methyl (R)-2-ethoxy-3-propionamido-3,4-dihydro-2H-benzo[e][1,2]oxaborinine-8-carboxylate] | appeared to have deliquesced | ~5.8 | 0.2 | ~0.5 | 1.1 | 3.3 | a decrease in mass was observed | 0.4 wt, -% | retained its predominant crystal structure for at least four hours | –
2 | CCOB1Oc2c(cccc2C(=O)OCOC(=O)C(CC)CC)C[C@@H]1NC(=O)CC [Compound 1-ethanolate, ((2-ethylbutanoyl)oxy)methyl (R)-2-ethoxy-3-propionamido-3,4-dihydro-2H-benzo[e][1,2]oxaborinine-8-carboxylate] | – | – | – | – | – | – | – | – | – | rapidly converted to the free boronic acid

Source: patent US20260132152A1, “SOLID FORMS OF AN ORALLY-DELIVERED BETA-LACTAMASE INHIBITOR AND USES THEREOF” (Venatorx Pharmaceuticals, Inc., priority 2019, published 2026)
